Source: PubChem BioAssay AID1963438 (Molecular Pharmacology Branch, DTP, NCI, 2024)
Where “and” joins values, the source holds several entries; their conditions need not be identical. Equal entries are not always repeated.

Tested on: NCI-H510 multicellular tumor spheroid growth, % test/control
Assay: Anticancer human tumor NCI-H510 cell line growth inhibition [Asc];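 also: spheroids exposed to agents for 7 days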;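 as to viability, T/C: 100% = DMSO vehicle control wells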
Conditions: for viability, T/C: stronger effect = lower value
Experimental: Multicellular complex tumor spheroid response to apoptosis pathway targeting inhibitors Alrizomadlin, Pelcitoclax, and Dasminapant in combination with a variety of drugs and investigational agents in selected tumor cell lines
The MDM2 inhibitor alrizomadlin, the Bcl-2/Bcl-xL inhibitor pelcitoclax, and the IAPs inhibitor dasminapant were evaluated both individually and in combination with standard of care and investigational anticancer small molecules within a complex spheroid model of solid tumors. . Complex spheroids include a stromal component modeled by human endothelial cells (HUVEC) and fibroblasts modeled by human mesenchymal stem cells (MSCs). The concentration ranges selected for each drug and investigational agent were based upon clinically achievable concentrations if the clinical Cmax of the agent was known.
Compounds. The drugs and investigational agents: alrizomadlin (APG-115; NSC831270), pelcitoclax (APG-1252; NSC835773), dasminapant (APG-1387;NSC834197), TAK-243 (NSC785004), copanlisib (NSC809693), olaparib (NSC753686), talazoparib (NSC767125), cobimetinib (NSC 768068), eltanexor (KPT-8602, NSC 794443), abemaciclib (NSC 768073), sotorasib (NSC818433), adagrasib (NSC 831453), MRTX-1133 (NSC 836407), Iadademestat (ORY1001, NSC 806812), and RMC-4630 (NSC839698), were obtained from the NCI Developmental Therapeutics Program Chemical Repository. The FDA-approved anticancer drug set is available from the Developmental Therapeutics Program at https://dtp.cancer.gov/organization/dscb/obtaining/available plates.htm. […] The stock solutions were prepared in dimethyl sulfoxide (DMSO, Sigma-Aldrich, St. Louis, MO, cat. D2650) at 800-fold the tested concentration and stored at -70 degrees C prior to their use. All drugs and investigational agents were tested over a range starting from a high concentration at or near the clinical Cmax and decreasing in half-log increments. If the clinical Cmax for an agent had not been determined, the highest concentration tested was 10 microM.
The patient-derived cancer (PDC) cell lines include five colon adenocarcinomas: 186277-243-T-J2-PDC, 616215-338-R-J1-PDC, 439559-082-T-J2-PDC, 463943-066-T-J2-PDC, and 519858-162-T-J1-PDC; three pancreatic carcinomas: 323965-272-R-J2-PDC, 521955-158-R6-J3-PDC, and 521955-158-R2-J5-PDC; two uterine sarcomas: 327498-152-R-J2-PDC and 993429-296-R-J1-PDC; two rhabdomyosarcomas: 755483-174-R-J1-PDC and 772245-204-R-J1-PDC; two soft tissue sarcomas: 126254-015-R-J1-PDC and 494315-158-R-J1-PDC; two malignant fibrous histiocytomas: 317291-083-R-J1-PDC and 596521-263-R-J1-PDC; two breast carcinomas: 171881-019-R-J1-PDC and 885512-296-R-J2-PDC; and one ovarian carcinoma: 6556581-035-R-J-PDC were obtained from the NCI PDMR, (https://pdmr.cancer.gov). The established cell lines HSSY-2 synovial sarcoma (RRID:CVCL 8719), SYO-1 synovial sarcoma (RRID:CVCL_7146), MPNST malignant peripheral neural sheath tumor were obtained from the Sloan Kettering Institute. The following established cell lines were purchased from the American Type Culture Collection (ATCC, Manassas, VA), Sor the received from the NCI repository:, PANC-1 pancreatic carcinoma (CRL-1469, RRID:CVCL_0480), OVCAR-5 ovarian carcinoma (RRID:CVCL_1628), OVCAR-8 ovarian carcinoma (RRID:CVCL_1629), , MCF-7 breast carcinoma (CRL-12584, RRID:CVCL_0031), MDA-MB-231 breast carcinoma (CRL-12532, RRID:CVCL_0062), NCI-H1876 small cell lung carcinoma (CRL-5902, RRID:CVCL_1503), NCI-H510A small cell lung carcinoma (HTB-184, RRID:CVCL_1565), NCI-H1417 (CRL-5869, RRID:CVCL_1469), and NCI-H196 small cell lung carcinoma (CRL-5823, RRID:CVCL_1509). Dr. Peter Houghton (Greehey Children's Cancer Research Institute, University of Texas Health Science Center, San Antonio, TX) provided Rh-18 rhabdomyosarcoma (RRID:CVCL_1659). Pooled donor human umbilical vein endothelial cells (HUVEC, Lonza, cat. CC-2519) and human mesenchymal stem cells (hMSC, Lonza, cat. PT-2501) were purchased from Lonza (Walkersville, MD).
Cell Culture. […]

[1] = curve of first compound, second compound 0.1 µM
[2] = curve of first compound, second compound 0.316 µM
[3] = curve of first compound, second compound 1 µM

C=C(F)C(=O)N1CCN(c2nc(OCC3CCCN3C)nc3c2CCN(c2cccc4cccc(Cl)c24)C3)CC1CC#N (configuration not stated) + Cc1c(S(C)(=O)=O)c(-c2cc(F)cc(N3CCN(c4ccc(NS(=O)(=O)c5ccc(NC(CCN6CCC(C(=O)OCCCP(=O)(O)O)CC6)CSc6ccccc6)c(S(=O)(=O)C(F)(F)F)c5)cc4)CC3)c2)c(-c2ccc(Cl)cc2)n1C(C)C
IC50 [1]: 693 nM
IC50 [2]: 905 nM
IC50 [3]: 761 nM
IC50 (curve of first compound, second compound 3.16 µM): 961 nM
IC50 (curve of first compound, second compound 10 µM): 546 nM
viability, T/C (second compound 0.1 µM, first compound 0.0316 µM): 103%
viability, T/C (second compound 0.1 µM, first compound 0.1 µM): 85.7%
viability, T/C (second compound 0.1 µM, first compound 0.316 µM): 86%
viability, T/C (second compound 0.1 µM, first compound 1 µM): 33.7%
viability, T/C (second compound 0.1 µM, first compound 3.16 µM): 0.61%
viability, T/C (second compound 0.1 µM, first compound 10 µM): 0.12%
viability, T/C (second compound 0.316 µM, first compound 0.0316 µM): 105%
viability, T/C (second compound 0.316 µM, first compound 0.1 µM): 95%
viability, T/C (second compound 0.316 µM, first compound 0.316 µM): 86.2%
viability, T/C (second compound 0.316 µM, first compound 1 µM): 48.9%
viability, T/C (second compound 0.316 µM, first compound 3.16 µM): 0.67%
viability, T/C (second compound 0.316 µM, first compound 10 µM): 0.11%
viability, T/C (second compound 1 µM, first compound 0.0316 µM): 113%
viability, T/C (second compound 1 µM, first compound 0.1 µM): 125%
viability, T/C (second compound 1 µM, first compound 0.316 µM): 99.8%
viability, T/C (second compound 1 µM, first compound 1 µM): 34.8%
viability, T/C (second compound 1 µM, first compound 3.16 µM): 0.13%
viability, T/C (second compound 1 µM, first compound 10 µM): 0.11%
viability, T/C (second compound 3.16 µM, first compound 0.0316 µM): 118%
viability, T/C (second compound 3.16 µM, first compound 0.1 µM): 110%
viability, T/C (second compound 3.16 µM, first compound 0.316 µM): 94.1%
viability, T/C (second compound 3.16 µM, first compound 1 µM): 52.2%
viability, T/C (second compound 3.16 µM, first compound 3.16 µM): 0.11%
viability, T/C (second compound 3.16 µM, first compound 10 µM): 0.14%
viability, T/C (second compound 10 µM, first compound 0.0316 µM): 86.2%
viability, T/C (second compound 10 µM, first compound 0.1 µM): 103%
viability, T/C (second compound 10 µM, first compound 0.316 µM): 80.6%
viability, T/C (second compound 10 µM, first compound 1 µM): 15.6%
viability, T/C (second compound 10 µM, first compound 3.16 µM): 0.8%
viability, T/C (second compound 10 µM, first compound 10 µM): 0.19%

COc1c(OCCCN2CCOCC2)ccc2c3n(c(=NC(=O)c4cnc(N)nc4)nc12)CCN3
viability, T/C (compound 0.00316 µM): 114% and 91.5% and 87.9%
viability, T/C (compound 0.01 µM): 97.9% and 112% and 97.6%
viability, T/C (compound 0.0316 µM): 93.2% and 99.9% and 112%
viability, T/C (compound 0.1 µM): 93.2% and 52.7% and 108%
viability, T/C (compound 0.316 µM): 110% and 89.6% and 115%
viability, T/C (compound 1 µM): 81.5% and 92.5% and 114%
IC50 (curve of compound): > 1000 nM

NC(=O)C(=Cn1cnc(-c2cc(C(F)(F)F)cc(C(F)(F)F)c2)n1)c1cncnc1 + CNC(C)C(=O)NC1CN(S(=O)(=O)c2cccc(S(=O)(=O)N3CCC4CCC(C(=O)NC(c5ccccc5)c5ccccc5)N4C(=O)C(NC(=O)C(C)NC)C3)c2)CCC2CCC(C(=O)NC(c3ccccc3)c3ccccc3)N2C1=O
IC50 (curve of first compound, second compound 0.01 µM): > 300 nM
IC50 (curve of first compound, second compound 0.0316 µM): > 300 nM
IC50 [1]: > 300 nM
IC50 [2]: > 300 nM
IC50 [3]: > 300 nM
viability, T/C (second compound 0.01 µM, first compound 0.000949 µM): 104%
viability, T/C (second compound 0.01 µM, first compound 0.003 µM): 112%
viability, T/C (second compound 0.01 µM, first compound 0.00949 µM): 104%
viability, T/C (second compound 0.01 µM, first compound 0.03 µM): 92.3%
viability, T/C (second compound 0.01 µM, first compound 0.0949 µM): 110%
viability, T/C (second compound 0.01 µM, first compound 0.3 µM): 101%
viability, T/C (second compound 0.0316 µM, first compound 0.000949 µM): 92.3%
viability, T/C (second compound 0.0316 µM, first compound 0.003 µM): 101%
viability, T/C (second compound 0.0316 µM, first compound 0.00949 µM): 102%
viability, T/C (second compound 0.0316 µM, first compound 0.03 µM): 108%
viability, T/C (second compound 0.0316 µM, first compound 0.0949 µM): 112%
viability, T/C (second compound 0.0316 µM, first compound 0.3 µM): 108%
viability, T/C (second compound 0.1 µM, first compound 0.000949 µM): 110%
viability, T/C (second compound 0.1 µM, first compound 0.003 µM): 94.5%
viability, T/C (second compound 0.1 µM, first compound 0.00949 µM): 107%
viability, T/C (second compound 0.1 µM, first compound 0.03 µM): 110%
viability, T/C (second compound 0.1 µM, first compound 0.0949 µM): 112%
viability, T/C (second compound 0.1 µM, first compound 0.3 µM): 96.8%
viability, T/C (second compound 0.316 µM, first compound 0.000949 µM): 115%
viability, T/C (second compound 0.316 µM, first compound 0.003 µM): 116%
viability, T/C (second compound 0.316 µM, first compound 0.00949 µM): 109%
viability, T/C (second compound 0.316 µM, first compound 0.03 µM): 87.3%
viability, T/C (second compound 0.316 µM, first compound 0.0949 µM): 109%
viability, T/C (second compound 0.316 µM, first compound 0.3 µM): 95.9%
viability, T/C (second compound 1 µM, first compound 0.000949 µM): 93.7%
viability, T/C (second compound 1 µM, first compound 0.003 µM): 107%
viability, T/C (second compound 1 µM, first compound 0.00949 µM): 93.6%
viability, T/C (second compound 1 µM, first compound 0.03 µM): 104%
viability, T/C (second compound 1 µM, first compound 0.0949 µM): 105%
viability, T/C (second compound 1 µM, first compound 0.3 µM): 92.9%
